The text below walks through data of US5662929A, “Therapeutic liposomal formulation” (Universite de Montreal, priority 1994, dated 1997).

The nature of data set [1]: Pulmonary retention / tobramycin levels after intratracheal administration in non-infected mice. It is filed as in vivo, BALB/c mice. The conditions noted are these: 200 ug intratracheal, HPLC. As to the method: Using differential scan calorimetry, the temperatures of phase transition (Tc) were calculated for the tobramycin-liposomal formulations listed in Table 1. All these formulations were then tested in vitro to assess the antibiotic kinetics of liberation from the liposomes. […] These liposomal formulations were further tested in animal model of chronic pulmonary infection to examine their antibacterial efficacy.
Lungs and kidneys were removed aseptically, weighed, and then homogenized in cold sterile PBS (40% [wt/vol]) for 30 s with a Polytron homogenizer. Tobramycin levels in both homogenized tissues and sera were measured by HPLC. Groups of three mice were used for each time value.

For data set [2], the system named is Pseudomonas aeruginosa PA 508 (mucoid phenotype). Nature of the data set: Bactericidal effect in chronic pulmonary infection, rat (Table 3 experiment). It is filed as in vivo, P. aeruginosa in Sprague-Dawley rats. As to the method:
Different liposomal formulations were prepared according to Example 1 and analyzed by differential scan colorimetry. Using differential scan calorimetry, the temperatures of phase transition (Tc) were calculated for the tobramycin-liposomal formulations listed in Table 1. All these formulations were then tested in vitro to assess the antibiotic kinetics of liberation from the liposomes. In addition, these formulations were tested in a non-infected mouse model as previously described (Omri et al. 1994, Antimicrob. Agents Chemother. 38:1090-1095) to assess the persistence of the liposomes in the lung. Only the DPPC/DMPG 10:1, 15:1 and DSPC. […] These liposomal formulations were further tested in animal model of chronic pulmonary infection to examine their antibacterial efficacy. […] Of note, the addition of cholesterol to the formulation described in Table 1 brought the Tc to a minimum value of 60° C. Such formulations were incompatible with modulation of gradual antibiotic liberation and suitable interactions with bacteria. Thus, in order to maintain the desired characteristic of the liposome formulation, a low rigidity of the liposomes seems required. This low rigidity can be achieved by maintaining a low temperature of phase transition (below the body temperature of the animal to which the formulation is to be administered) and avoiding the use of cholesterol in the formulation.
(§1) To evaluate the bactericidal efficacy of a liposomal aminoglycoside formulation produced according to the present invention, male, pathogen-free, Sprague-Dawley rats weighing 175 to 225 g (Charles River) were used. Chronic infection in lungs was established by intratracheal administration of 5×10^5 CFU of Pseudomonas aeruginosa PA 508 (mucoid phenotype) prepared in agar beads. It is to be pointed out that this rat model for chronic pulmonary infection is widely recognized as the most appropriate animal model for chronic pulmonary infections in human CF patients. After 3 days, three doses (600 ug) of free or liposome-encapsulated tobramycin were given intratracheally at intervals of 16 h. The lipid mixture were DPPC:DMPG at a molar ratio of 10:1 (formula no 1) and DPPC:DMPC at a molar ratio of 15:1 (formula no 2). Sixteen hours after the last treatment, the animals were sacrificed and the entire lungs were removed aseptically, weighed and homogenized as described previously for mice. Serial 10-fold dilutions of the homogenates in cold PBS were made and spread in triplicate on proteose peptone agar plates. Identification of P. aeruginosa was confirmed by specific cultures. CFU were counted after 24-h incubations at 37° C. under 5% CO^2. Counts were expressed in log CFU per pair of lungs. PBS and PBS-liposomes were used as controls.

A further data set concerns P. aeruginosa. The data set is described as follows: Bactericidal effect in infected rat lung tissues, second experiment (Table 4). In kind it is in vivo, P. aeruginosa in Sprague-Dawley rats. The conditions noted are these: two doses of 240 ug.
Source text: as §1, with “After 3 days, three doses (600 ug) of free or liposome-encapsulated tobramycin were given intratracheally at intervals of 16 h.” left out, “controls. […]” for “controls.”

As to `NC[C@H]1O[C@H](O[C@H]2[C@H](O)[C@@H](O[C@H]3O[C@H](CO)[C@@H](O)[C@H](N)[C@H]3O)[C@H](N)C[C@@H]2N)[C@H](N)C[C@@H]1O` [free tobramycin, tobramycin], the Conc in lungs is given as 43 ug/pair of lungs in data set [1] (0.25 h) and 11 ug/pair of lungs in data set [1] (1 h). The Conc in kidneys in data set [1] (1 h) is 25 ug/pair of kidneys. Moreover, in data set [2] (free antibiotic, see below), the bacteria enumerated is listed as 10^7 c.f.u. Also, in data set [2] (rat, compared with free antibiotic), the “antibacterial efficacy in chronic pulmonary infection model (in words)” value was “no or little bactericidal activity”. The “log cfu/pair of lungs” value in data set [2] (three doses (600 ug) intratracheally at 16 h intervals, 16 h after last treatment) is listed as 7.10 log cfu/pair of lungs; in the data set on P. aeruginosa, 6.03 log cfu/pair of lungs. Moreover, the cfu/pair of lungs in data set [2] (three doses (600 ug) intratracheally at 16 h intervals, 16 h after last treatment, cfu counts < 30 not statistically significant) was 1.25 × 10^7 cfu/pair of lungs; in the data set on P. aeruginosa it was 1.07 × 10^6 cfu/pair of lungs.
